The values below come from ChEMBL document CHEMBL1201862, “PubChem BioAssay data set” (2004).

Structures are written as SMILES.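 Cells were grown in 96-well plates and exposed to each compound for 48 hours at five concentrations; endpoints were interpolated linearly between bracketing concentrations, or set to the highest concentration if not reached. GI50 = concentration required for 50% inhibition of growth.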 The source made the active and inactive calls. Cut-off read from the data, not from the text of the source: active = GI50 up to about 1.1 µM and inactive = higher.

Test systems include HCT-15; SW-620; M14; SK-OV-3; OVCAR-8; A549; KM12; IGROV-1; CAKI-1; SK-MEL-2; HT-29; HOP-92; Hs-578T; SF-295; SK-MEL-5; RPMI-8226; Malme-3M; HOP-62; MOLT-4; HCC 2998.
Holding throughout (assay): growth of human tumour cells (NCI), 48 h

Take `CC(C)(C)c1cc(C(=O)/C=C/c2ccc3c(c2)OCO3)cc(C(C)(C)C)c1O`: the GI50 with HCT-15 is 4.83 µM; with SW-620 it was 5.96 µM (inactive); in the test on M14 it was 8.11 µM (inactive); in the test with SK-OV-3 it was 15.8 µM (inactive); in the test with OVCAR-8, 13.6 µM (inactive); in the test on A549, 9.64 µM (inactive). The GI50 is 5.05 µM (inactive) in the test on KM12; 17.9 µM (inactive) in the test on IGROV-1; 9.29 µM (inactive) in the test with CAKI-1; 3.26 µM (inactive) with SK-MEL-2; 5.73 µM (inactive) with HT-29; 25.6 µM (inactive) in the test with HOP-92. In addition, the GI50 with Hs-578T was 6.93 µM (inactive); in the test with SF-295 it was 5.7 µM (inactive); in the test on SK-MEL-5, 4.2 µM (inactive); in the test on RPMI-8226, 4.39 µM (inactive); in the test on Malme-3M it was 32.4 µM (inactive); in the test with HOP-62, 19.4 µM (inactive). Besides, the GI50 in the test on MOLT-4 is 5.6 µM (inactive); with HCC 2998, 1.75 µM (inactive).
As for `Cc1ccccc1S(=O)(=O)OC1NS(=O)(=O)c2ccccc21` (stereo not given), the GI50 in the test on HCT-15 is more than 100 µM; in the test with SW-620 it was > 100 µM (inactive); with M14, > 100 µM (inactive); in the test on SK-OV-3 it was > 100 µM (inactive); with OVCAR-8, > 100 µM (inactive); in the test with A549, > 100 µM (inactive). Besides, the GI50 in the test with KM12, in the test on IGROV-1, in the test on CAKI-1, with SK-MEL-2, with HT-29 and with HOP-92 was > 100 µM (inactive) in each case. Besides, the GI50 with Hs-578T, in the test on SF-295, with SK-MEL-5, in the test on RPMI-8226, in the test with Malme-3M and with HOP-62 was > 100 µM (inactive) throughout. Also, the GI50 in the test with MOLT-4 and in the test with HCC 2998 was > 100 µM (inactive) throughout.
As to `C=C(C)[C@@H]1CC[C@]2(C(=O)O)CC[C@]3(C)[C@H](CC[C@@H]4[C@@]5(C)CC[C@H](O)C(C)(C)[C@@H]5CC[C@]43C)[C@@H]12` [BETULINIC ACID], the GI50 with HCT-15 is 8.67 µM; in the test with SW-620, 18.2 µM (inactive); in the test on M14 it was 10.3 µM (inactive); in the test on SK-OV-3, 15.9 µM (inactive); with OVCAR-8, 4.85 µM (inactive); in the test with A549, 4.88 µM (inactive). Also, the GI50 in the test on KM12 was 5.93 µM (inactive); with IGROV-1, 11.9 µM (inactive); with CAKI-1, 11.6 µM (inactive); in the test on SK-MEL-2, 12.4 µM (inactive); in the test with HT-29, 8.24 µM (inactive); in the test on HOP-92, 3.27 µM (inactive). For the same compound, the GI50 with Hs-578T is 10.8 µM (inactive); in the test with SF-295, 7.71 µM (inactive); in the test on SK-MEL-5, 4.19 µM (inactive); in the test on RPMI-8226, 7.36 µM (inactive); in the test with Malme-3M, 7.59 µM (inactive); with HOP-62, 8.36 µM (inactive). Further, the GI50 is 4.51 µM (inactive) with MOLT-4 and 6.31 µM (inactive) in the test on HCC 2998.
Turning to `COc1ccc(-c2cc(=O)c3c(O)c(OC)c(OC)c(OC)c3o2)cc1` [GARDENIN B], the GI50 in the test with HCT-15 is 2.37 µM; with SW-620, 2.13 µM (inactive); in the test with M14, 16.5 µM (inactive); in the test on SK-OV-3, 8.38 µM (inactive); with OVCAR-8, > 100 µM (inactive); in the test with A549, 10.1 µM (inactive). Also, the GI50 in the test with KM12 was 0.92 µM (active); in the test on IGROV-1 it was 2.33 µM (inactive); in the test on CAKI-1, > 100 µM (inactive); in the test with SK-MEL-2, 12.8 µM (inactive); in the test on HT-29, 4.17 µM (inactive); in the test with HOP-92, 27.4 µM (inactive). Also, the GI50 was 26.2 µM (inactive) in the test with Hs-578T; 20.7 µM (inactive) in the test with SF-295; 5.52 µM (inactive) in the test on SK-MEL-5; > 28.1 µM (inactive) in the test with RPMI-8226; > 28.6 µM (inactive) with Malme-3M; 24.5 µM (inactive) with HOP-62. Further, the GI50 in the test on MOLT-4 was > 100 µM (inactive); in the test on HCC 2998, 1.71 µM (inactive).
